Data reported in the supplement of paper PMC10307832.

compound: C1=CC2=C(C=C(C(=C2N=C1)O)N=NC3=CC4=C(C=C3)C=C(C=C4)S(=O)(=O)O)S(=O)(=O)O + Cc1nc(NC(=O)N2CCC[C@H]2C(N)=O)sc1-c1ccnc(C(C)(C)C(F)(F)F)c1 [Alpelisib] (partner 2 µM); experiment: relative viability (nuclei count vs DMSO), 5 days (fraction); higher = more cells survive; conditions: first compound 8 µM
Outline: (§1)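 Medians of duplicate plates are given as relative viability. That measure is the nuclei count in treated wells divided by the count in vehicle wells. Counts were taken on 4× images of lung cancer cell lines in 1536-well plates, 5 days after pin-tool dosing the day after seeding with one drug alone or a fixed anchor-drug dose plus five library-drug doses (not always all listed) in √10 steps.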

Cell Line | relative viability
NCI-H1792 | 0.743
NCI-H1355 | 0.956
NCI-H3122 | 0.76
NCI-H1437 | 0.929
NCI-H1755 | 0.956
NCI-H2023 | 0.624
HCC-15 | 0.938
NCI-H1793 | 0.652
PC-14 | 0.967
EKVX | 0.903
LC-2-ad | 0.98
NCI-H1944 | 0.838
NCI-H1975 | 0.649
RERF-LC-KJ | 0.843
NCI-H358 | 0.354
NCI-H650 | 1.09
PC-3 [JPC-3] | 0.998

compound: O=C(NC1CCNCC1)c1n[nH]cc1NC(=O)c1c(Cl)cccc1Cl [AT-7519] + C[C@]1(O)C[C@@H](c2nc(-c3ccc4ccc(-c5ccccc5)nc4c3)c3c(N)nccn32)C1 [Linsitinib] (partner 1 µM); experiment: as above; conditions: first compound 0.01 µM
Outline: as §1

Cell Line | relative viability
A-427 | 1.13
NCI-H441 | 0.553
NCI-H661 | 0.46
NCI-H1734 | 0.92
NCI-H460 | 0.712
NCI-H2347 | 1.08
SK-LU-1 | 1.39
NCI-H1395 | 1.12
201T | 0.933
NCI-H1915 | 1.08
HCC-827 | 0.959
LXF-289 | 0.957
NCI-H23 | 0.591
NCI-H647 | 0.982
CAL-12T | 0.755
NCI-H1651 | 1.16
EPLC-272H | 0.999
NCI-H2228 | 0.618

Cell Line | relative viability
NCI-H1792 | 0.291
NCI-H1355 | 0.795
NCI-H3122 | 0.971
NCI-H1437 | 1.14
NCI-H1755 | 1
NCI-H2023 | 0.731
HCC-15 | 0.961
NCI-H1793 | 1.06
PC-14 | 0.927
EKVX | 0.963
LC-2-ad | 0.754
NCI-H1944 | 1.16
NCI-H1975 | 0.917
RERF-LC-KJ | 0.914
NCI-H358 | 0.733
NCI-H650 | 0.854
PC-3 [JPC-3] | 0.957

same assay, conditions: first compound 0.03162 µM

Cell Line | relative viability
A-427 | 1.12
NCI-H441 | 0.482
NCI-H661 | 0.513
NCI-H1734 | 0.874
NCI-H460 | 0.63
NCI-H2347 | 1.01
SK-LU-1 | 1.2
NCI-H1395 | 1.01
201T | 1.04
NCI-H1915 | 1.05
HCC-827 | 0.973
LXF-289 | 1.02
NCI-H23 | 0.619
NCI-H647 | 1.13
CAL-12T | 0.752
NCI-H1651 | 0.963
EPLC-272H | 1.1
NCI-H2228 | 0.564

Cell Line | relative viability
NCI-H1792 | 0.358
NCI-H1355 | 0.737
NCI-H3122 | 1.03
NCI-H1437 | 1.17
NCI-H1755 | 0.993
NCI-H2023 | 0.699
HCC-15 | 0.879
NCI-H1793 | 0.945
PC-14 | 0.873
EKVX | 0.949
LC-2-ad | 0.832
NCI-H1944 | 1.02
NCI-H1975 | 0.795
RERF-LC-KJ | 0.848
NCI-H358 | 0.592
NCI-H650 | 0.791
PC-3 [JPC-3] | 0.974

same assay, conditions: first compound 0.3162 µM

Cell Line | relative viability
A-427 | 1.13
NCI-H441 | 0.487
NCI-H661 | 0.538
NCI-H1734 | 0.796
NCI-H460 | 0.159
NCI-H2347 | 0.919
SK-LU-1 | 0.849
NCI-H1395 | 0.978
201T | 1.06
NCI-H1915 | 1.11
HCC-827 | 0.946
LXF-289 | 1.04
NCI-H23 | 0.523
NCI-H647 | 1.38
CAL-12T | 0.69
NCI-H1651 | 0.917
EPLC-272H | 0.945
NCI-H2228 | 0.544

Cell Line | relative viability
NCI-H1792 | 0.441
NCI-H1355 | 0.79
NCI-H3122 | 1.06
NCI-H1437 | 0.81
NCI-H1755 | 1.03
NCI-H2023 | 0.626
HCC-15 | 0.724
NCI-H1793 | 0.74
PC-14 | 0.909
EKVX | 0.928
LC-2-ad | 0.908
NCI-H1944 | 1.12
NCI-H1975 | 0.746
RERF-LC-KJ | 1.03
NCI-H358 | 0.347
NCI-H650 | 1.04
PC-3 [JPC-3] | 1.04

same assay, conditions: first compound 1 µM

Cell Line | relative viability
A-427 | 0.81
NCI-H441 | 0.395
NCI-H661 | 0.343
NCI-H1734 | 0.549
NCI-H460 | 0.0184
NCI-H2347 | 0.793
SK-LU-1 | 0.356
NCI-H1395 | 0.603
201T | 1.05
NCI-H1915 | 0.909
HCC-827 | 0.899
LXF-289 | 0.933
NCI-H23 | 0.255
NCI-H647 | 0.48
CAL-12T | 0.314
NCI-H1651 | 0.886
EPLC-272H | 1.18
NCI-H2228 | 0.312

Cell Line | relative viability
NCI-H1792 | 0.444
NCI-H1355 | 0.722
NCI-H3122 | 0.421
NCI-H1437 | 0.344
NCI-H1755 | 0.967
NCI-H2023 | 0.329
HCC-15 | 0.43
NCI-H1793 | 0.684
PC-14 | 0.848
EKVX | 0.959
LC-2-ad | 0.464
NCI-H1944 | 1.13
NCI-H1975 | 0.172
RERF-LC-KJ | 0.811
NCI-H358 | 0.157
NCI-H650 | 0.693
PC-3 [JPC-3] | 1.02

compound: O=C(NC1CCNCC1)c1n[nH]cc1NC(=O)c1c(Cl)cccc1Cl [AT-7519] + CCNC(=O)c1noc(-c2cc(C(C)C)c(O)cc2O)c1-c1ccc(CN2CCOCC2)cc1 [Luminespib] (partner 0.01 µM); experiment: as above; conditions: first compound 0.01 µM
Outline: as §1

Cell Line | relative viability
A-427 | 1.07
NCI-H441 | 0.424
NCI-H661 | 1.01
NCI-H1734 | 0.2
NCI-H460 | 0.0297
NCI-H2347 | 0.83
SK-LU-1 | 0.221
NCI-H1395 | 0.606
201T | 1.12
NCI-H1915 | 0.687
HCC-827 | 0.603
LXF-289 | 0.557
NCI-H23 | 0.224
NCI-H647 | 0.209
CAL-12T | 0.438
NCI-H1651 | 0.882
EPLC-272H | 0.226

Cell Line | relative viability
NCI-H2228 | 0.152
NCI-H1355 | 0.87
NCI-H3122 | 0.104
NCI-H1437 | 1.17
NCI-H1755 | 0.59
NCI-H2023 | 0.622
HCC-15 | 0.293
NCI-H1793 | 0.387
PC-14 | 0.196
EKVX | 0.988
LC-2-ad | 1.03
NCI-H1944 | 0.846
NCI-H1975 | 0.21
RERF-LC-KJ | 1.18
NCI-H358 | 0.326
NCI-H650 | 0.75
PC-3 [JPC-3] | 0.515

same assay, conditions: first compound 0.03162 µM

Cell Line | relative viability
A-427 | 0.88
NCI-H441 | 0.367
NCI-H661 | 0.92
NCI-H1734 | 0.174
NCI-H460 | 0.0263
NCI-H2347 | 0.268
SK-LU-1 | 0.195
NCI-H1395 | 0.648
201T | 1.07
NCI-H1915 | 0.798
HCC-827 | 0.61
LXF-289 | 0.724
NCI-H23 | 0.236
NCI-H647 | 0.244
CAL-12T | 0.509
NCI-H1651 | 0.675
EPLC-272H | 0.216
NCI-H2228 | 0.174

Cell Line | relative viability
NCI-H1792 | 0.453
NCI-H1355 | 0.621
NCI-H3122 | 0.0901
NCI-H1437 | 1.2
NCI-H1755 | 0.38
NCI-H2023 | 0.748
HCC-15 | 0.413
NCI-H1793 | 0.161
PC-14 | 0.151
EKVX | 0.845
LC-2-ad | 0.892
NCI-H1944 | 0.775
NCI-H1975 | 0.176
RERF-LC-KJ | 1.21
NCI-H358 | 0.267
NCI-H650 | 0.7
PC-3 [JPC-3] | 0.558

same assay, conditions: first compound 0.3162 µM

Cell Line | relative viability
A-427 | 1.06
NCI-H441 | 0.313
NCI-H661 | 0.975
NCI-H1734 | 0.164
NCI-H460 | 0.0291
NCI-H2347 | 0.392
SK-LU-1 | 0.202
NCI-H1395 | 0.665
201T | 1.04
NCI-H1915 | 0.729
HCC-827 | 0.566
LXF-289 | 0.697
NCI-H23 | 0.183
NCI-H647 | 0.148
CAL-12T | 0.15
NCI-H1651 | 0.614
EPLC-272H | 0.37
NCI-H2228 | 0.156

Cell Line | relative viability
NCI-H1792 | 0.359
NCI-H1355 | 0.564
NCI-H3122 | 0.112
NCI-H1437 | 1.09
NCI-H1755 | 0.345
NCI-H2023 | 0.521
HCC-15 | 0.343
NCI-H1793 | 0.385
PC-14 | 0.151
EKVX | 0.846
LC-2-ad | 1.17
NCI-H1944 | 0.677
NCI-H1975 | 0.317
RERF-LC-KJ | 0.856
NCI-H358 | 0.24
NCI-H650 | 0.838
PC-3 [JPC-3] | 0.694

same assay, conditions: first compound 1 µM

Cell Line | relative viability
A-427 | 0.184
NCI-H441 | 0.242
NCI-H661 | 0.219
NCI-H1734 | 0.0866
NCI-H460 | 0.0206
NCI-H2347 | 0.39
SK-LU-1 | 0.2
NCI-H1395 | 0.508
201T | 1.05
NCI-H1915 | 0.62
HCC-827 | 0.334
LXF-289 | 0.5
NCI-H23 | 0.146
NCI-H647 | 0.0855
CAL-12T | 0.0831
NCI-H1651 | 0.607
EPLC-272H | 0.0726
NCI-H2228 | 0.165

Cell Line | relative viability
NCI-H1792 | 0.613
NCI-H1355 | 0.578
NCI-H3122 | 0.0695
NCI-H1437 | 0.745
NCI-H1755 | 0.416
NCI-H2023 | 0.16
HCC-15 | 0.214
NCI-H1793 | 0.119
PC-14 | 0.111
EKVX | 0.774
LC-2-ad | 0.501
NCI-H1944 | 0.554
NCI-H1975 | 0.126
RERF-LC-KJ | 0.311
NCI-H358 | 0.224
NCI-H650 | 0.611
PC-3 [JPC-3] | 0.623
